Assay: xn = mol fraction of the nth substance listed
Conditions: Liquid, Vibrating tube method

CCCCCCCCCC [decane] + O=C=O
Conditions | mass density [kg/m3]
313.1 K, 2005 kPa, x2 = 0.0551 | 717.94
313.1 K, 3035 kPa, x2 = 0.0551 | 718.98
313.1 K, 4061 kPa, x2 = 0.0551 | 719.88
313.1 K, 5020 kPa, x2 = 0.2369 | 728.09
313.1 K, 5063 kPa, x2 = 0.0551 | 720.72
313.1 K, 6029 kPa, x2 = 0.0551 | 721.55
313.1 K, 6029 kPa, x2 = 0.2369 | 729.09
313.1 K, 7015 kPa, x2 = 0.2369 | 730.07
313.1 K, 7028 kPa, x2 = 0.0551 | 722.42
313.1 K, 7998 kPa, x2 = 0.0551 | 723.25
313.1 K, 8019 kPa, x2 = 0.2369 | 731.05
313.1 K, 9012 kPa, x2 = 0.2369 | 732.01
313.1 K, 9019 kPa, x2 = 0.0551 | 724.09
313.1 K, 10010 kPa, x2 = 0.0551 | 724.92
313.1 K, 10012 kPa, x2 = 0.2369 | 732.96
313.1 K, 11018 kPa, x2 = 0.2369 | 733.88
313.1 K, 11032 kPa, x2 = 0.0551 | 725.72
313.1 K, 12009 kPa, x2 = 0.2369 | 734.8
313.1 K, 12046 kPa, x2 = 0.0551 | 726.55
313.1 K, 13016 kPa, x2 = 0.2369 | 735.72
313.1 K, 13029 kPa, x2 = 0.0551 | 727.32
313.1 K, 14011 kPa, x2 = 0.0551 | 728.1
313.1 K, 14019 kPa, x2 = 0.2369 | 736.6
313.1 K, 15006 kPa, x2 = 0.2369 | 737.46
313.1 K, 15013 kPa, x2 = 0.0551 | 728.84
313.1 K, 15992 kPa, x2 = 0.0551 | 729.58
313.1 K, 16017 kPa, x2 = 0.2369 | 738.34
313.1 K, 16999 kPa, x2 = 0.0551 | 730.32
313.1 K, 17006 kPa, x2 = 0.2369 | 739.17
313.1 K, 18008 kPa, x2 = 0.2369 | 740.01
313.1 K, 18044 kPa, x2 = 0.0551 | 731.13
313.1 K, 19016 kPa, x2 = 0.2369 | 740.85
313.1 K, 19030 kPa, x2 = 0.0551 | 731.85
313.1 K, 19999 kPa, x2 = 0.0551 | 732.57
313.1 K, 20000 kPa, x2 = 0.2369 | 741.67
313.1 K, 21019 kPa, x2 = 0.2369 | 742.51
313.1 K, 21031 kPa, x2 = 0.0551 | 733.3
313.1 K, 22002 kPa, x2 = 0.2369 | 743.29
313.1 K, 22015 kPa, x2 = 0.0551 | 734
313.1 K, 23007 kPa, x2 = 0.2369 | 744.12
313.1 K, 23023 kPa, x2 = 0.0551 | 734.74
313.1 K, 24008 kPa, x2 = 0.2369 | 744.96
313.1 K, 24060 kPa, x2 = 0.0551 | 735.5
313.1 K, 25013 kPa, x2 = 0.2369 | 745.78
313.1 K, 25026 kPa, x2 = 0.0551 | 736.2
313.11 K, 7015 kPa, x2 = 0.4536 | 742.3
313.11 K, 8024 kPa, x2 = 0.4536 | 743.57
313.11 K, 9021 kPa, x2 = 0.4536 | 744.82
313.11 K, 10024 kPa, x2 = 0.4536 | 746.02
313.11 K, 11020 kPa, x2 = 0.4536 | 747.22
313.11 K, 11029 kPa, x2 = 0.9663 | 714.21
313.11 K, 12022 kPa, x2 = 0.4536 | 748.39
313.11 K, 12037 kPa, x2 = 0.9663 | 738.68
313.11 K, 13012 kPa, x2 = 0.4536 | 749.55
313.11 K, 13049 kPa, x2 = 0.9663 | 758.54
313.11 K, 14017 kPa, x2 = 0.4536 | 750.69
313.11 K, 14020 kPa, x2 = 0.9663 | 774.43
313.11 K, 15013 kPa, x2 = 0.9663 | 788.48
313.11 K, 15020 kPa, x2 = 0.4536 | 751.81
313.11 K, 16007 kPa, x2 = 0.9663 | 800.98
313.11 K, 16020 kPa, x2 = 0.4536 | 752.93
313.11 K, 17013 kPa, x2 = 0.4536 | 753.99
313.11 K, 17027 kPa, x2 = 0.9663 | 812.43
313.11 K, 17984 kPa, x2 = 0.9663 | 822.21
313.11 K, 18019 kPa, x2 = 0.4536 | 755.06
313.11 K, 19014 kPa, x2 = 0.4536 | 756.08
313.11 K, 19037 kPa, x2 = 0.9663 | 832.11
